Literature values in patent US20220080020A1, “COMPOSITIONS AND METHODS FOR REDUCING THE TRAN[…] […] USING AN ORAL […] SYSTEM” (priority 2020, published 2022).

Tests used:
[1] = children, xylitol chewing gum or oral solution
[2] = aqueous solution
ACE2 receptor = settings: prevents covid 19 attachment

For OC[C@@H](O)[C@H](O)[C@@H](O)CO [xylitol], the “reduction in the incidence of otitis” value [1] is listed as “between a thirty and forty-percent reduction” and the “solubility (saturated solution)” value [2] is listed as “up to 64.2 grams per 100 ml of solution”.
For Cc1cc(O)c2c(c1)C(=O)c1cc(O)cc(O)c1C2=O [Emodin], the “competition with the ACE2 receptor” value (ACE2 receptor) is given as “compete with the ACE2 receptor”.
